In patent US6737383B1, “Herbicidal oxadiazolidines” (priority 1999, dated 2004):

What was measured:
bedstraw = experiment: Test B pre/postemergence bedstraw; format: in vivo, Galium aparine
In short: (§1)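 Test chemicals in a non-phytotoxic solvent mixture with surfactant were sprayed preemergence onto planted seeds and postemergence onto plants 2 to 18 cm tall (1- to 4-leaf stage). After twelve to sixteen days in a greenhouse, injury was visually rated against untreated controls from 0 (no effect) to 10 (complete control).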

sugar beet = experiment: Test B pre/postemergence sugar beet; format: in vivo, Beta vulgaris
In short: as §1

blackgrass = experiment: Test B pre/postemergence blackgrass; format: in vivo, Alopecurus myosuroides
In short: as §1

giant foxtail = experiment: Test B pre/postemergence giant foxtail; format: in vivo, Setaria faberii
In short: as §1

surinam grass = experiment: Test B pre/postemergence surinam grass; format: in vivo, Brachiaria decumbens
In short: as §1

wheat = experiment: Test B pre/postemergence wheat; format: in vivo, Triticum aestivum
In short: as §1

rape = experiment: Test B pre/postemergence rape; format: in vivo, Brassica napus
In short: as §1

crabgrass = experiment: Test B pre/postemergence crabgrass; format: in vivo, Digitaria sanguinalis
In short: as §1

velvetleaf = experiment: Test B pre/postemergence velvetleaf; format: in vivo, Abutilon theophrasti
In short: as §1

wild oat = experiment: Test B pre/postemergence wild oat; format: in vivo, Avena fatua
In short: as §1

corn = experiment: Test B pre/postemergence corn; format: in vivo, Zea mays
In short: as §1

soybean = experiment: Test B pre/postemergence soybean; format: in vivo, Glycine max
In short: as §1

morningglory = experiment: Test B pre/postemergence morningglory; format: in vivo, Ipomoea hederacea
In short: as §1

cocklebur = experiment: Test B pre/postemergence cocklebur; format: in vivo, Xanthium strumarium
In short: as §1

purple nutsedge = experiment: Test B pre/postemergence purple nutsedge; format: in vivo, Cyperus rotundus
In short: as §1

pigweed = experiment: Test B pre/postemergence pigweed; format: in vivo, Amaranthus retroflexus
In short: as §1

[1] = Postemergence, Rate 125 g/ha, scale of 0 to 10 where 0 is no effect and 10 is complete control
[2] = Preemergence, Rate 62 g/ha, scale of 0 to 10 where 0 is no effect and 10 is complete control
[3] = Preemergence, Rate 125 g/ha, 0 is no effect, 10 is complete control
[4] = Preemergence, Rate 250 g/ha, scale 0 to 10, 0 is no effect, 10 is complete control
[5] = Preemergence, Rate 500 g/ha, scale 0 to 10 (0 no effect, 10 complete control)
[6] = Rate 62 g/ha, Postemergence, scale of 0 to 10 where 0 is no effect and 10 is complete control
[7] = Rate 250 g/ha, Postemergence, scale 0 to 10, 0 is no effect, 10 is complete control
[8] = Rate 500 g/ha, Postemergence, scale 0 to 10

In the case of CC(C)N(C(=O)n1oc(=O)n([C@@H](C)c2ccccc2)c1=O)c1ccccc1 [Compound 168], the “Bedstraw plant response rating” value (bedstraw; [1]) is reported as 3, the “Bedstraw plant response rating” value (bedstraw; [2]) is reported as 0 and the “Bedstraw plant response rating (0 to 10 scale)” value (bedstraw; [3]) is reported as 0. For the same molecule, the “Bedstraw plant response rating” value (bedstraw; [4]) was 0, the “Bedstraw plant response rating” value (bedstraw; [5]) was 0 and the “Bedstraw plant response rating” value (bedstraw; [6]) was 3. For the same molecule, the “Plant response rating, Bedstraw” value (bedstraw; [7]) was 8, the “Sugarbeets plant response rating” value (sugar beet; [1]) was 0 and the “Sugarbeets plant response rating” value (sugar beet; [2]) was 0. For the same molecule, the “Sugarbeets plant response rating (0 to 10 scale)” value (sugar beet; [3]) was 0, the “Sugarbeets plant response rating” value (sugar beet; [4]) was 4 and the “Sugarbeets plant response rating” value (sugar beet; [5]) was 7. For the same molecule, the “Sugarbeets plant response rating” value (sugar beet; [6]) was 0, the “Plant response rating, Sugarbeets” value (sugar beet; [7]) was 0 and the “Sugarbeets plant response rating” value (sugar beet; [8]) was 0. For the same molecule, the “Blackgrass plant response rating” value (blackgrass; [1]) was 0, the “Blackgrass plant response rating” value (blackgrass; [2]) was 0 and the “Blackgrass plant response rating (0 to 10 scale)” value (blackgrass; [3]) was 1. For the same molecule, the “Blackgrass plant response rating” value (blackgrass; [4]) was 2, the “Blackgrass plant response rating” value (blackgrass; [5]) was 2 and the “Blackgrass plant response rating” value (blackgrass; [6]) was 0. The “Plant response rating, Blackgrass” value (blackgrass; [7]) was 2, the “Blackgrass plant response rating” value (blackgrass; [8]) was 7 and the “Giant foxtail plant response rating” value (giant foxtail; [1]) was 0. For the same molecule, the “Giant foxtail plant response rating” value (giant foxtail; [2]) was 6, the “Giant foxtail plant response rating (0 to 10 scale)” value (giant foxtail; [3]) was 8 and the “Giant foxtail plant response rating” value (giant foxtail; [4]) was 10. For the same molecule, the “Giant foxtail plant response rating” value (giant foxtail; [5]) was 10, the “Giant foxtail plant response rating” value (giant foxtail; [6]) was 0 and the “Plant response rating, Giant foxtail” value (giant foxtail; [7]) was 1. The “Giant foxtail plant response rating” value (giant foxtail; [8]) was 3, the “B. signalgrass plant response rating” value (surinam grass; [1]) was 0 and the “B. signalgrass plant response rating” value (surinam grass; [2]) was 0. For the same molecule, the “B. signalgrass plant response rating (0 to 10 scale)” value (surinam grass; [3]) was 2, the “B. signalgrass plant response rating” value (surinam grass; [4]) was 2 and the “B. signalgrass plant response rating” value (surinam grass; [5]) was 5. For the same molecule, the “B. signalgrass plant response rating” value (surinam grass; [6]) was 0, the “Plant response rating, B. signalgrass” value (surinam grass; [7]) was 0 and the “B. signalgrass plant response rating” value (surinam grass; Rate 500 g/ha, Postemergence, scale 0 to 10, 0 no effect, 10 complete control) was 0. The “Wheat plant response rating” value (wheat; [2]) was 0, the “Wheat plant response rating (0 to 10 scale)” value (wheat; [3]) was 0 and the “Wheat plant response rating” value (wheat; [4]) was 0. The “Wheat plant response rating” value (wheat; [5]) was 0, the “Plant response rating, Wheat” value (wheat; [7]) was 0 and the “Wheat plant response rating” value (wheat; [8]) was 0. For the same molecule, the “Rape plant response rating” value (rape; [1]) was 0, the “Rape plant response rating” value (rape; [2]) was 0 and the “Rape plant response rating (0 to 10 scale)” value (rape; [3]) was 0. The “Rape plant response rating” value (rape; [4]) was 0, the “Rape plant response rating” value (rape; [5]) was 0 and the “Rape plant response rating” value (rape; [6]) was 0. For the same molecule, the “Plant response rating, Rape” value (rape; [7]) was 0, the “Rape plant response rating” value (rape; [8]) was 0 and the “Crabgrass plant response rating” value (crabgrass; [1]) was 1. The “Crabgrass plant response rating” value (crabgrass; [2]) was 0, the “Crabgrass plant response rating (0 to 10 scale)” value (crabgrass; [3]) was 3 and the “Crabgrass plant response rating” value (crabgrass; [4]) was 7. The “Crabgrass plant response rating” value (crabgrass; [5]) was 7, the “Crabgrass plant response rating” value (crabgrass; [6]) was 0 and the “Plant response rating, Crabgrass” value (crabgrass; [7]) was 2. For the same molecule, the “Crabgrass plant response rating” value (crabgrass; [8]) was 9, the “Velvetleaf plant response rating” value (velvetleaf; [2]) was 0 and the “Velvetleaf plant response rating (0 to 10 scale)” value (velvetleaf; [3]) was 0. For the same molecule, the “Velvetleaf plant response rating” value (velvetleaf; [4]) was 0, the “Velvetleaf plant response rating” value (velvetleaf; [5]) was 6 and the “Plant response rating, Velvetleaf” value (velvetleaf; [7]) was 1. For the same molecule, the “Velvetleaf plant response rating” value (velvetleaf; [8]) was 1, the “Wild oats plant response rating” value (wild oat; [2]) was 0 and the “Wild oats plant response rating (0 to 10 scale)” value (wild oat; [3]) was 0. The “Wild oats plant response rating” value (wild oat; [4]) was 1, the “Wild oats plant response rating” value (wild oat; [5]) was 3 and the “Plant response rating, Wild oats” value (wild oat; [7]) was 0. For the same molecule, the “Wild oats plant response rating” value (wild oat; [8]) was 0, the “Corn plant response rating” value (corn; [1]) was 0 and the “Corn plant response rating” value (corn; [2]) was 0. For the same molecule, the “Corn plant response rating (0 to 10 scale)” value (corn; [3]) was 0, the “Corn plant response rating” value (corn; [4]) was 0 and the “Corn plant response rating” value (corn; [5]) was 0. For the same molecule, the “Corn plant response rating” value (corn; [6]) was 0, the “Plant response rating, Corn” value (corn; [7]) was 0 and the “Corn plant response rating” value (corn; [8]) was 0. For the same molecule, the “Soybean plant response rating” value (soybean; [1]) was 1, the “Soybean plant response rating” value (soybean; [2]) was 0 and the “Soybean plant response rating (0 to 10 scale)” value (soybean; [3]) was 0. For the same molecule, the “Soybean plant response rating” value (soybean; [4]) was 0, the “Soybean plant response rating” value (soybean; [5]) was 0 and the “Soybean plant response rating” value (soybean; [6]) was 1. The “Plant response rating, Soybean” value (soybean; [7]) was 2, the “Soybean plant response rating” value (soybean; [8]) was 2 and the “Morningglory plant response rating” value (morningglory; [1]) was 8. The “Morningglory plant response rating” value (morningglory; [2]) was 0, the “Morningglory plant response rating (0 to 10 scale)” value (morningglory; [3]) was 0 and the “Morningglory plant response rating” value (morningglory; [4]) was 0. For the same molecule, the “Morningglory plant response rating” value (morningglory; [5]) was 0, the “Morningglory plant response rating” value (morningglory; [6]) was 7 and the “Plant response rating, Morningglory” value (morningglory; [7]) was 10. For the same molecule, the “Morningglory plant response rating” value (morningglory; [8]) was 10, the “Cocklebur plant response rating” value (cocklebur; [1]) was 0 and the “Cocklebur plant response rating” value (cocklebur; [2]) was 0. The “Cocklebur plant response rating (0 to 10 scale)” value (cocklebur; [3]) was 0, the “Cocklebur plant response rating” value (cocklebur; [4]) was 0 and the “Cocklebur plant response rating” value (cocklebur; [5]) was 0. For the same molecule, the “Cocklebur plant response rating” value (cocklebur; [6]) was 0, the “Plant response rating, Cocklebur” value (cocklebur; [7]) was 2 and the “Cocklebur plant response rating” value (cocklebur; [8]) was 2. For the same molecule, the “Nutsedge plant response rating” value (purple nutsedge; [1]) was 0, the “Nutsedge plant response rating” value (purple nutsedge; [2]) was 0 and the “Nutsedge plant response rating (0 to 10 scale)” value (purple nutsedge; [3]) was 0. For the same molecule, the “Nutsedge plant response rating” value (purple nutsedge; [4]) was 0, the “Nutsedge plant response rating” value (purple nutsedge; [5]) was 0 and the “Nutsedge plant response rating” value (purple nutsedge; [6]) was 0. The “Plant response rating, Nutsedge” value (purple nutsedge; [7]) was 0, the “Nutsedge plant response rating” value (purple nutsedge; [8]) was 0 and the “Redroot pigweed plant response rating” value (pigweed; [1]) was 0. For the same molecule, the “Redroot pigweed plant response rating” value (pigweed; [2]) was 0, the “Redroot pigweed plant response rating (0 to 10 scale)” value (pigweed; [3]) was 0 and the “Redroot pigweed plant response rating” value (pigweed; [4]) was 0. For the same molecule, the “Redroot pigweed plant response rating” value (pigweed; [5]) was 0, the “Redroot pigweed plant response rating” value (pigweed; [6]) was 0 and the “Plant response rating, Redroot pigweed” value (pigweed; [7]) was 0. For the same molecule, the “Redroot pigweed plant response rating” value (pigweed; [8]) was 0.
